Test results published in paper PMC7985297 (Communications Biology, 2021).
Several values for one entry are separate records, joined by “and”; a condition that tells them apart may be missing. Equal values may be shown once.

Experiments:
[1] = test system: androgen-regulated genes (KLK3/PSA, TMPRSS2, NKX3.1, FKBP5); assay: Quantitative real-time PCR of androgen-regulated genes in LNCaP cells; assay type: cell-based, human; conditions: enzalutamide 5 μM, juglone 20 μM, R1881 1 nM, 48 hours
[2] = test system: LN95-D3 cells; assay: Cell cycle analysis by flow cytometry, LN95-D3 subline; assay type: cell-based, human; conditions: LN95-D3, absence of androgen, 48 h
[3] = molecular target: T1, recombinant human Pin1 protein (Homo sapiens, UniProt Q13526); assay: Pin1 inhibition assay (fluorometric isomerase activity); assay type: biochemical; conditions: compounds 0–50 µM, 500 ng Pin1, Supplementary Fig. 2
T1 construct: purchased Abcam ab51230
Procedure: The effect of inhibitors on Pin1 isomerase activity was evaluated using a fluorometric Pin1 Assay Kit (AnaSpec, Fremont, California), according to the manufacturer’s protocol. […] Fluorescence intensity was measured with excitation wavelength at 490 nm and emission wavelength at 520 nm on an Infinite M1000 plate reader (Tecan, Männedorf, Switzerland) at 37 °C. Measurements were recorded every 5 min for up to 1 h.
Fluorescent polarization-based assay
the isomerase activity of Pin1. Each reaction contains 500 ng of
recombinant human Pin1 protein incubated with an inhibitor and a
fluorogenic substrate at 37°C. The uncatalyzed reaction represents
the intrinsic cis/trans isomerization of the substrate without Pin1
separate experiments with the correlation performed in duplicate
wells. RFU, relative fluorescent units.
(1 picture or pasted object on this page, not shown here)

[4] = test system: Pin1 and cell cycle proteins in LN95 cells; assay: Western blot of Pin1 and cell cycle proteins in LN95 cells; conditions: for CyclinA2 protein level (Fig. 6a) / CyclinB1 protein level (Fig. 6a) / CyclinD1 protein level (Fig. 6a) / Pin1 protein level (Fig. 6a) / p21 protein level (Fig. 6a) / p27 protein level (Fig. 6a): relative to 0 μM = 1, replicate experiments by date
Procedure: Data shown are the means ± s.e.m. from 3–4 independent experiments. Statistical significance was determined by ANOVA using the Dunnett’s multiple comparisons test. *P < 0.05, **P < 0.01, ***P < 0.001.
For western blot analyses, membranes were blocked with 5% non-fat milk in phosphate-buffered saline containing 0.1% Tween-20 (PBS-T) and then incubated overnight at 4 °C with primary antibody (1:200–5000) in PBS-T containing 5% non-fat milk or 2% BSA. After incubation with the primary antibody, the membrane was washed three times with TBS-T, incubated with a horseradish peroxidase-conjugated antibody secondary antibody (1:5000–10,000) for 1–2 h at room temperature, and washed three times with PBS-T and two more times with PBS before chemiluminescence was detected with ECL Prime Reagent (GE Healthcare Life Science, Mississauga, ON). Western blot images were captured using the ChemiDoc MP Imaging System (Bio-Rad Laboratories, Hercules, CA) and quantified using ImageJ software.

[5] = test system: Pin1, Cyclin D1, Skp2 and AR in LN95-D3 tumors; assay: Western blot of harvested LN95-D3 xenograft tumors (Pin1, Cyclin D1, Skp2, AR); assay type: in vivo, mice; conditions: LN95-D3 tumors at end of study
Procedure: Scale bars represent 5 mm (f) western blot analysis showing the expression of Pin1, Cyclin D1, Skp2, and AR from representative tumors. Quantification of the data is shown for g Pin1 and h Skp2, where the error bars represent the mean ± s.e.m.
All experiments involving animals conform to the relevant regulatory and ethical standards and were approved by the University of British Columbia Animal Care Committee (A18-0077). Metacam (1 mg/kg, 0.05 mL/10 g of body weight) was administered subcutaneously prior to any surgery. Animals were anesthetized with isoflurane and euthanized by CO2. Six–eight-week-old male (NOD-scid IL2Rgamma^null) mice were maintained in the Animal Care Facility at the British Columbia Cancer Research Centre. Mice were castrated 2 weeks before they were subcutaneously inoculated in the right flank with two million LN95-D3 cells in a 1:1 volume of matrigel (Corning Discovery Labware, Corning, NY). […] Tumors were excised 1 day after the last dose and prepared for western blot analysis and immunohistochemistry.

[6] = test system: LN95-D3 xenografts; assay: Growth of LN95-D3 CRPC xenografts in castrated male NSG mice; assay type: in vivo; conditions: castrated mice, ATRA 5 mg 21-day release pellet, EPI-7170 30 mg/kg daily oral, relative to vehicle/placebo-control
[7] = test system: Ki-67, PSA and AR in LN95-D3 xenografts; assay: Immunohistochemistry of LN95-D3 xenografts (Ki-67, PSA, AR); assay type: in vivo, mice
Text: Fig. 8 Immunohistochemistry of LN95-D3 xenografts. a Representative images showing the histomorphology and expression of Ki-67, PSA, and AR from harvested tumors. Scale bars represent 100 µm. Statistical analysis for b the percentage of Ki-67-positive tumor cells and for the expression of c PSA and d AR. Error bars represent the mean ± s.d.
Sections were cut from formalin-fixed, paraffin-embedded tumor tissue at a thickness of 5 µm, deparaffinized in xylene, and then rehydrated in alcohols and distilled water. Endogenous peroxidase was blocked by incubating with a 3% hydrogen peroxide solution for 5 min. […] PSA was detected using a monoclonal mouse anti-human PSA antibody concentrate (ER-PR8; Dako). A negative control without the primary antibody was included for each sample on the same slide. Antigen was detected with 3,3-diaminobenzidine (DAB) and hematoxylin was used for counterstaining. Images were captured on an Axio Imager M2 microscope (Zeiss) at ×200 magnification. The percentage of Ki-67-positive cells was determined with ImageJ using the Cell Counter plugin. At least 1000 cells were scored from three images of representative tumors for each treatment group. The intensity of DAB staining for PSA was quantified by ImageJ using color deconvolution and measuring the mean gray value for the DAB image, where optical density = log(max intensity/mean intensity), and a max intensity of 255 for an 8-bit image.

[8] = molecular target: T2, full-length AR (Homo sapiens, UniProt P10275, T878A); assay: PSA(6.1 kb)-luciferase AR-driven reporter assay in LNCaP cells; assay type: cell-based; conditions: for PSA(6.1 kb)-luciferase activity normalized to fold-induction by R1881 (=100): without or with ATRA 5uM; for fractional response (Fig. 5h): monotherapy or with 5 µM ATRA
T2 construct: Transcriptional activity of full-length AR was assessed in LNCaP cells; endogenous in cells; host or cells: LNCaP
T2 sequence (P10275 1-920 T878A): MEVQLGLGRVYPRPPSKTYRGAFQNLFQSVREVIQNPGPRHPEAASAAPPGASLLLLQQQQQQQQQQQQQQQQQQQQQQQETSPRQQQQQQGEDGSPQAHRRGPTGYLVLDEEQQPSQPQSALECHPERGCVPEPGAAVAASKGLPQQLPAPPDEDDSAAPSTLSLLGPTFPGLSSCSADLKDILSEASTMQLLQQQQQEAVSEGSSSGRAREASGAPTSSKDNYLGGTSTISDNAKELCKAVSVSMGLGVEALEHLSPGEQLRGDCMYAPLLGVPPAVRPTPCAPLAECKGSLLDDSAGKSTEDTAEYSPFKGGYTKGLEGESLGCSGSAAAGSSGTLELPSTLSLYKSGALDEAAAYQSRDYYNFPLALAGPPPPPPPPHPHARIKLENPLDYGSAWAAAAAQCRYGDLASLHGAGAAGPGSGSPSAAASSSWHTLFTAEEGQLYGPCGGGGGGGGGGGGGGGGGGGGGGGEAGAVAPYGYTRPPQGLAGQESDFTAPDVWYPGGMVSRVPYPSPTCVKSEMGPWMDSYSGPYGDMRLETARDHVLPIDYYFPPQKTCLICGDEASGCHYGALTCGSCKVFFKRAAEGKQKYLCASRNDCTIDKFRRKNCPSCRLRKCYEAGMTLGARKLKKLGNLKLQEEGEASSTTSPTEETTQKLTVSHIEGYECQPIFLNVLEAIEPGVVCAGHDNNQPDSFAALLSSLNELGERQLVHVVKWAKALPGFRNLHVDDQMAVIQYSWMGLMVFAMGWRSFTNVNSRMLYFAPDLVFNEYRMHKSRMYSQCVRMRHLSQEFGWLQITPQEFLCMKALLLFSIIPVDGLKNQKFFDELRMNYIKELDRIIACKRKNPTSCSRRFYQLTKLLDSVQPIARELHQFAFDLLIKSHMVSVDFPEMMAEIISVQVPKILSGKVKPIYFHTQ

T1 sequence (Q13526 whole entry): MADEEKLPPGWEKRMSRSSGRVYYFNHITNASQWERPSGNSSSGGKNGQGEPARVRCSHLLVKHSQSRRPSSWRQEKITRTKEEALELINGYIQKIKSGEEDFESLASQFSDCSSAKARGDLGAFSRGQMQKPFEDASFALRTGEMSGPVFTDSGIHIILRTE

## CNC(=O)c1ccc(N2C(=S)N(c3ccc(C#N)c(C(F)(F)F)c3)C(=O)C2(C)C)cc1F [enzalutamide]
[1]
  effect on androgen-induced FKBP5 transcript: efficiently blocked
[2]
  effect on cell cycle distribution: had no effect on the cell cycle distribution

## CC1=C(/C=C/C(C)=C/C=C/C(C)=C\C(=O)O)C(C)(C)CCC1 [13cisRA, 13-cis-retinoic acid]
[3]
  effect on isomerase activity of Pin1: did not inhibit the isomerase activity of Pin1
[4]; 1 μM
  CyclinA2 protein level (Fig. 6a): 1.4 and 0.72 and 1.11
  CyclinB1 protein level (Fig. 6a): 1.01 and 0.65 and 1.18
  CyclinD1 protein level (Fig. 6a): 0.66 and 0.89 and 1.34 and 0.47
  Pin1 protein level (Fig. 6a): 1.03 and 1.11 and 1.06 and 0.77
  p21 protein level (Fig. 6a): 1.11 and 0.58 and 0.74
  p27 protein level (Fig. 6a): 1.11 and 0.36 and 0.65
[4]; 5 μM
  CyclinA2 protein level (Fig. 6a): 1.68 and 0.83 and 0.8
  CyclinB1 protein level (Fig. 6a): 1.11 and 0.76 and 0.82
  CyclinD1 protein level (Fig. 6a): 0.7 and 1.29 and 1.73 and 0.85
  Pin1 protein level (Fig. 6a): 0.96 and 1.44 (2×) and 0.77
  p21 protein level (Fig. 6a): 0.92 and 0.24 and 0.67
  p27 protein level (Fig. 6a): 0.91 and 0.32 and 0.6
[4]; 10 μM
  CyclinA2 protein level (Fig. 6a): 1.29 and 0.49 and 1.45
  CyclinB1 protein level (Fig. 6a): 1.06 and 0.77 and 1.15
  CyclinD1 protein level (Fig. 6a): 0.54 and 1.01 and 0.27 and 0.84
  Pin1 protein level (Fig. 6a): 0.95 and 0.71 and 1.33 and 1.23
  p21 protein level (Fig. 6a): 0.89 and 0.39 and 1.12
  p27 protein level (Fig. 6a): 1.06 and 0.44 and 1.1
[4]; LN95, 0–10 µM
  effect on cellular Pin1 protein levels: did not impact the cellular levels of Pin1

## CC(C)(c1ccc(OC[C@H](O)CNS(C)(=O)=O)cc1)c1cc(Cl)c(OC[C@H](O)CCl)c(Cl)c1 [EPI-7170]
[5]
  tumor levels of Skp2: reduced
[6]
  tumor growth after 21 days of treatment: significantly reduced
[7]; LN95-D3 xenografts
  effect on number of Ki-67-positive tumor cells: decreased the number of Ki-67-positive tumor cells in xenografts
  levels of AR protein in xenografts (IHC): similar
[7]; LN95-D3 xenografts, ATRA 5 mg pellet, EPI-7170 30 mg/kg/d, listed as EPI placebo
  expression of AR, DAB staining (Fig. 8d): 0.086 and 0.114 and 0.139 and 0.128 and 0.109 and 0.1 and 0.132 and 0.137
[7]; LN95-D3 xenografts, ATRA 5 mg pellet, EPI-7170 30 mg/kg/d, one value per tumor, listed as EPI placebo
  percentage of Ki-67-positive tumor cells (Fig. 8b): 19.68% and 14.7% and 15.02%
[7]; compared to the control
  effect on PSA expression in xenografts (IHC): decreased
[8]; 4 µM of EPI-7170
  inhibition of reporter activity at highest concentration: ~ 98%
[8]; ATRA 5 μM, Bliss independence model, highest concentrations excluded
  mean combination index (CI) with ATRA, PSA(6.1 kb)-luciferase: 0.91
[8]; EPI-7170 0.2 μM
  PSA(6.1 kb)-luciferase activity normalized to fold-induction by R1881 (=100): 77.0788 and 79.4022 and 93.7923 and 73.47
[8]; EPI-7170 0.5 μM
  PSA(6.1 kb)-luciferase activity normalized to fold-induction by R1881 (=100): 56.3224 and 79.2412 and 61.2392 and 64.29
[8]; EPI-7170 2 μM
  fractional response (Fig. 5h): 0.8636 and 0.6689 and 0.7916 and 0.8858
[8]; EPI-7170 4 μM
  fractional response (Fig. 5h): 0.9949 and 0.9737 and 0.993 and 0.9732
[8]; LNCaP, androgen-induced (R1881), 24 h, without ATRA, read-out: IC50 for PSA(6.1 kb) luciferase, monotherapy
  IC50: 0.74 ± 1.12 µM
